Assays:
[1] = target: acetylcholinesterase (AChE) (Homo sapiens, UniProt P22303); experiment: biochemical; conditions: at least five concentrations
Description: (§1) In cholinesterase activity measurements, the method reported by Karagecili and coworkers was used with minor modifications.^[ [23] ^] Here, acetylchoiniodate was used as a substrate for both enzymes. Lipase enzyme activity measurement was performed according to the method reported by Bulut.^[ [24] ^] In inhibition studies, measurements were made at at least five different concentrations of the molecules synthesized. %activity values were calculated by accepting enzyme activity measurements without inhibitor as 100%. Then, molecule concentrations were plotted against Activity% values.

[2] = target: butyrylcholinesterase (BChE) (Homo sapiens, UniProt P06276); experiment: biochemical; conditions: at least five concentrations
Chain of butyrylcholinesterase (BChE) (P06276 29-602, species assumed): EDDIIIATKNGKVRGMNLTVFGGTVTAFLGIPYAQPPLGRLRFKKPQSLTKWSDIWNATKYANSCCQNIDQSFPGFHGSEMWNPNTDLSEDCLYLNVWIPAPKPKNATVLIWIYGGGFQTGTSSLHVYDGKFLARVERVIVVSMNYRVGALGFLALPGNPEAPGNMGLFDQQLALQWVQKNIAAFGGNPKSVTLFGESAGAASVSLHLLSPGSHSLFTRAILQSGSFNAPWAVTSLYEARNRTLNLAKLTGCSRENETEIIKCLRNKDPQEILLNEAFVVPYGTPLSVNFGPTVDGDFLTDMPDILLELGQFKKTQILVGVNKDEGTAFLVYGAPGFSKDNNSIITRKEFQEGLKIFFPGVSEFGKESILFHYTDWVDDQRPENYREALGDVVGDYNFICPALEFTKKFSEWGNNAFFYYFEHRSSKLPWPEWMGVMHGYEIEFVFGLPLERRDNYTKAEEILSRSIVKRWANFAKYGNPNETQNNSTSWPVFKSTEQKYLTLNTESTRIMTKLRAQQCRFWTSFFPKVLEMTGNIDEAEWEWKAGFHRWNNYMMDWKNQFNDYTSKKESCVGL
Description: as §1

pancreatic lipase = target: T1, pancreatic lipase (Homo sapiens, UniProt P16233); experiment: In vitro lipase inhibition assay; format: biochemical
T1 sequence (P16233 17-465): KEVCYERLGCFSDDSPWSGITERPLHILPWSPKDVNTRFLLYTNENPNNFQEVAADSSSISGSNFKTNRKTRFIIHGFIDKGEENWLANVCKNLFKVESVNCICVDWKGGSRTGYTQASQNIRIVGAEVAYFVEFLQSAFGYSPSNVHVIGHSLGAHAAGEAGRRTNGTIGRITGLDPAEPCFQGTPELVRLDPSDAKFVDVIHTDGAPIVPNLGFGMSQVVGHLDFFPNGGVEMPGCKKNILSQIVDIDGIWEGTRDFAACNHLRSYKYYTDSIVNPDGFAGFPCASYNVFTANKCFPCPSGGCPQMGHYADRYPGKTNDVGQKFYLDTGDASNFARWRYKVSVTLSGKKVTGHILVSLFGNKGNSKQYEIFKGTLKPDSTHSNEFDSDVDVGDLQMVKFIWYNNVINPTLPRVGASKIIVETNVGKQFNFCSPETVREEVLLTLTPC
Description: as §1

Chain of acetylcholinesterase (AChE) (P22303 32-614, species assumed): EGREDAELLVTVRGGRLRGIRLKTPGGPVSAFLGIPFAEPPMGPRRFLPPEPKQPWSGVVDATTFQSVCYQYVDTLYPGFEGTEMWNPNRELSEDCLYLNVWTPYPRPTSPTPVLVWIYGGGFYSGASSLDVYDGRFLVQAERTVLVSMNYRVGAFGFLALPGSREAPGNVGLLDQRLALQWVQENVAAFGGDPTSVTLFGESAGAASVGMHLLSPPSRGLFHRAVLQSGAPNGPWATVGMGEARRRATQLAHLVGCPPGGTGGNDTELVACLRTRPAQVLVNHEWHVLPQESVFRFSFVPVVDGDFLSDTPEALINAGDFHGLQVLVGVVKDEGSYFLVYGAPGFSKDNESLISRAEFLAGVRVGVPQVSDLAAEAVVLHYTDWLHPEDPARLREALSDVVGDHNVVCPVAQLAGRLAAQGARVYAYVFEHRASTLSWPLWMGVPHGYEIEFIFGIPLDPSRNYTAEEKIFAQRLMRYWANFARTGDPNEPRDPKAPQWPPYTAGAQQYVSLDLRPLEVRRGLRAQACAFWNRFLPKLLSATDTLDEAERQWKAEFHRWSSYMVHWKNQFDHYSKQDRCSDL

| Structure (SMILES) | IC50 [1] | IC50 [2] | IC50 (pancreatic lipase; at least five concentrations) | Effect on lipase in the concentration ranges studied (pancreatic lipase; no IC50 given in Table 5) |
| --- | --- | --- | --- | --- |
| O=C(NCC1CCCCN1)c1ccnc(-c2cc(C(=O)NCC3CCCCN3)ccn2)c1 (stereo not drawn) [L2, N4,N4′‐bis(piperidin‐2‐ylmethyl)‐[2,2′‐bipyridine]‐4,4′‐dicarboxamide] | 10.2 µM | 8.83 µM | 24.1 µM |  |
| O=C(NCc1ccccn1)c1ccnc(-c2cc(C(=O)NCc3ccccn3)ccn2)c1 [L1, N4,N4′‐bis(pyridin‐2‐ylmethyl)‐[2,2′‐bipyridine]‐4,4′‐dicarboxamide] | 173 µM | 68.1 µM |  | did not show a linear effect |

From publication PMC12409821, “Synthesis and Characterization of Co(II), Cu(II), and Ni(II) Complexes of 2,2′‐Bipyridine‐4,4′‐Dicarboxamide Ligands: Antibacterial Evaluation Against Resistant Bacteria and Enzyme Inhibition” (ChemistryOpen, 2025)
